The record followed here is patent US20050256081A1, “Tetracycline derivatives for the treatment of ocular pathologies” (priority 2004, published 2005).

Several values for one entry are separate records, joined by “and”; a condition that tells them apart may be missing. Equal values may be shown once.

The subject of assay [1] is corneal neovascularization. The assay can be described thus: Silver nitrate cauterization corneal neovascularization model, two drug combinations (Example 3). The format is in vivo, Long Evans rats. Particulars: for effect on corneal neovascularization, individual agents: flurbiprofen 0.03% w/v, LMWH 10 mg/ml, administered as individual agents, data not shown. The source says: Artificial corneal burns were induced in thirty-two eyes belonging to thirty-two Long Evans rats to determine the effects of doxycycline or another tetracycline derivative and low molecular weight heparin, doxycycline or another tetracycline derivative, and flurbiprofen, or flurbiprofen and low molecular weight heparin, on corneal neovascularization. All the eyes were examined to exclude any eyes with corneal scars and/or neovascularization prior to induction.
(§1) Neovascularization was induced in all eyes using silver nitrate cauterization. The animals were first anesthetized by intraperitoneal injection of a mixture of ketamine hydrochloride (25 mg/kg) with xylazine hydrochloride (5 mg/kg). The cornea was then anesthetized by a drop of 0.5% proparacaine and allowed to dry.
Group 1 (number of animals, n=8) received a 1:1 combination of 0.03% flurbiprofen sodium ophthalmic solution (Allergan, Irvine CA) and 10 mg/ml low molecular weight heparin (Enoxaparin, Aventis Pharmaceuticals Inc., Bridgewater N.J.); an actual concentration of 0.015% flurbiprofen with 5 mg/ml low molecular weight heparin. […] Group 3 (n=8) received a 1:1 combination of 20 mg/ml doxycycline and 10 mg/ml low molecular weight heparin; an actual concentration of 10 mg/ml doxycycline with 5 mg/ml low molecular weight heparin. Group 4 (n=8) received balanced salt solution (control). The drops were applied topically immediately after cauterization; treatments were administered two times per day for seven days.
The presence of new vessels (neovascularization) and the extent of new vessel formation was assessed by slit lamp photography and histology. Inhibition of vessel proliferation was evaluated by measuring vessel progression from the outer cornea (corneal limbus) into the comea. As previously described, it will be appreciated that any reduction of new vessel proliferation and/or regression of existing vessels is therapeutic, and that complete inhibition and/or regression is not required, and also that reduction includes regression of existing vessels.
The extent of corneal neovascularization was determined by slit lamp microscopy with photography (SL-7E, Topcon, Tokyo Japan) on day seven after cauterization. The animals were euthanized in a carbon dioxide chamber under deep general anesthesia. […]
Corneal neovascularization was assessed by scanning (Cano scan 9900F, Canon, Tokyo Japan) the slit lamp photographs into high resolution digital images. […] The percentage area of the cornea covered by the corneal scar in each eye was also determined. […]
Statistical analysis was performed using Statistical Analysis System (SPSS 11.5) software. The difference between the groups was determined using Mann-Whitney U Analysis test; a p value less than 0.05 was considered significant.

The test system of assay [2] is corneal neovascularization. Briefly: Silver nitrate cauterization corneal neovascularization model, single agents (Example 5). In kind it is in vivo, Long Evans pigmented rats. Particulars: for NV area compared to the control group (statistical significance): GLM with Tukey's studentized range test, significance at p≦0.05; for neovascularization on digitally enhanced slit lamp photograph: seven days after induction of corneal burn, FIG. 11; for Percent Area Of Neovascularization Mean ± SD: topical two times daily for 7 days, 7th day, ascomycin 50 μg/ml, flurbiprofen 0.03%, doxycycline 20 mg/ml, LMWH 10 mg/ml, triamcinolone acetonide 4 mg/ml.

Assay [3] relates to corneal neovascularization. Briefly: Silver nitrate cauterization corneal neovascularization model, doxycycline concentrations and pH (Example 4). The format is in vivo, Long Evans pigmented rats. Particulars: for Percent area of neovascularization (Mean ± SD): topical two times per day for seven days, n=6, monohydrate.
From the text: Thirty-six eyes belonging to thirty-six male Long Evans pigmented rats (200 g to 250 g) were divided into […] groups. Treated eyes were topically administered doxycycline at the following concentrations and having the indicated pH values: 0.05%^w/v (pH 3.3), 0.1%^w/v (pH 3.1), 1%^w/v (pH 2.3), 2%^w/v (pH 2.1), 2%^w/v (adjusted to pH of 7.4). One eye of each animal served as a treated eye and the other eye served as a non-treated control eye. Artificial corneal bums were induced. All the eyes were examined to exclude any eyes with corneal scars and/or neovascularization prior to induction.
as §1
The presence of new vessels (neovascularization) and the extent of new vessel formation was assessed by slit lamp photography and histology. Inhibition of vessel proliferation was evaluated by measuring vessel progression from the outer cornea (corneal limbus) into the cornea. As previously described, it will be appreciated that any reduction of new vessel proliferation and/or regression of existing vessels is therapeutic, and that complete inhibition and/or regression is not required, and also that reduction indudes regression of existing vessels.
Neovascularization was evaluated by an examiner who was blinded as to the treatment groups to minimize the observer bias.
The animals were euthanized in a carbon dioxide chamber under deep general anesthesia. The eyes were enucleated and fixed in 10% formaldehyde.
Corneal neovascularization was assessed by scanning (Cano scan 9900F, Canon, Tokyo Japan) the slit lamp photographs into high resolution digital images. […] The percentage area of the cornea covered by the corneal scar in each eye was also determined. A drawing of corneal blood vessels was made to compare with digital photos and ensure that no vascular area was omitted during calculation of percent area.
Statistical analyses were performed using each animal as an experimental unit with Statistical Analysis System (SPSS 11.5) software. Kruscal-Vallis and Mann-Whitney U Analysis was conducted and treatment means were separated at p<0.05 with least significant difference (LSD) test. A p value <0.05 was considered significant.
For histopathologic evaluation, sedated animals were euthanized with inhaled CO2 and enucleation was performed immediately. […] The eyes were prepared for histological examination using 10% formaldehyde. […] The corneas were then soaked in xylene and paraffin, and later embedded in paraffin and cut at […] for staining with hematoxylin and eosin (H&E) for light microscopy.
Light microscopic examination was performed on every microscopic section.

Assay [4] concerns corneal neovascularization. The assay can be described thus: Inhibition of corneal neovascularization after silver nitrate/potassium nitrate corneal burn, graded by slit lamp photography and histology (Example 1). In kind it is in vivo, rat. Particulars: agent alone, topically applied twice a day; doxycycline about 1 to about 20 mg/ml, low molecular weight heparin about 10 mg/ml, triamcinolone about 4 mg/ml; compared to controls. On the procedure:
Artificial corneal burns were induced in rat eyes to determine the effects of doxycycline, steroids, and low molecular weight heparin, alone and in combinations, on corneal neovascularization.
The presence of new vessels (neovascularization) and the extent of new vessel formation was assessed by split lamp photography and histology. Inhibition of vessel proliferation was evaluated by measuring vessel progression from the outer cornea (corneal limbus) into the cornea. A numerical rating system was used to quantitate the degree of inhibition (+, ++, and +++ inhibition), with “+ inhibition” indicating inhibition one-third of the distance from the limbus of the cornea to the center; “++ inhibition” indicating inhibition two-thirds of the distance from the limbus to the center; “+++ inhibition” indicating complete inhibition of vessels between the limbus and the center; and the designation “± inhibition” indicating an intermediate degree of inhibition (e.g, less than +, ++, or +++) .

Turning to `CC(C(=O)[O-])c1ccc(-c2ccccc2)c(F)c1.O.O.[Na+]` (racemic) [flurbiprofen, sodium (±)-2-(2-fluoro-4-biphenylyl)-propionate dihydrate], the “effect on corneal neovascularization, individual agents” value in assay [1] is given as “did not significantly decrease corneal neovascularization”. Moreover, in assay [2], the “NV area compared to the control group (statistical significance)” value was “no statistically significant differences” and the “neovascularization on digitally enhanced slit lamp photograph” value is recorded as “neovascularization is quite prominent”. For the same compound, the “Percent Area Of Neovascularization Mean ± SD” value in assay [2] (dihydrate) is 50.5%±18.7%. In assay [2] (listed as Flurbiprofen, dihydrate), the “Percent Area Of Neovascularization Mean ± SD” value is on record as 50.6 ± 18.7%.
As for `CC[C@@H]1/C=C(\C)C[C@H](C)C[C@H](OC)[C@H]2O[C@@](O)(C(=O)C(=O)N3CCCC[C@H]3C(=O)O[C@H](/C(C)=C/[C@@H]3CC[C@@H](O)[C@H](OC)C3)[C@H](C)[C@@H](O)CC1=O)[C@H](C)C[C@@H]2OC` [ascomycin], in assay [2], the “NV area compared to the control group (statistical significance)” value is on record as “no statistically significant differences” and the “Percent Area Of Neovascularization Mean ± SD” value is given as 56.0%±22.4%. Besides, the “Percent Area Of Neovascularization Mean ± SD” value in assay [2] (listed as Ascomycin) is recorded as 56.0 ± 22.4%.
On to `CC1c2cccc(O)c2C(=O)C2=C(O)C3(O)C(=O)C(C(N)=O)=C(O)C(N(C)C)C3C(O)C21.O` (centres unmarked) [doxycycline, 4-(dimethylamino)-1,4,4a,5,5a,6,11,12a-octahydro3,5,10,12,12a-pentahydroxy-6-methyl-1,11-dioxo-2-naphthacenecarboxamide monohydrate], for which the “histology (H&E), new vessels and inflammatory cells” value in assay [3] (0.05% doxycycline, FIG. 8A) is “new vessels and inflammatory cells through the entire corneal stroma”; in assay [3] (0.1% doxycycline, FIG. 8B), “new vessels and inflammatory cells through the entire corneal stroma”; in assay [3] (1% doxycycline, FIG. 8C) it was “inflammatory cells and there was neovascularization in the stroma far from the corneal burn”; in assay [3] (2% doxycycline adjusted to a substantially neutral pH, FIG. 8E), “fewer inflammatory cells and less neovascularization in the stroma than eyes administered 1% doxycycline”; in assay [3] (2% doxycycline not pH adjusted, FIG. 8D) it was “fewer inflammatory cells and less neovascularization in the stroma than eyes administered 1% doxycycline”. Further, the “Percent area of neovascularization (Mean ± SD)” value was 69.83 ± 17.98% in assay [3] (0.05% w/v doxycycline, pH 3.3, listed as Doxycycline); 69.8±17.9% in assay [3] (0.05% w/v doxycycline, pH 3.3); 64.48 ± 14.04% in assay [3] (0.1% w/v doxycycline, pH 3.1, listed as Doxycycline); 64.5±14.0% in assay [3] (0.1% w/v doxycycline, pH 3.1); 56.35 ± 20.84% in assay [3] (1% w/v doxycycline, pH 2.3, listed as Doxycycline); 56.3±20.8% in assay [3] (1% w/v doxycycline, pH 2.3). The “Percent area of neovascularization (Mean ± SD)” value stood at 36.2 ± 4.3% in assay [3] (2% w/v doxycycline adjusted to pH 7.4, listed as Doxycycline); 36.2±4.3% in assay [3] (2% w/v doxycycline adjusted to pH 7.4); 54.78 ± 5.95% in assay [3] (2% w/v doxycycline, pH 2.1 (not adjusted for pH), listed as Doxycycline); 54.7±5.9% in assay [3] (2% w/v doxycycline, pH 2.1 (not adjusted for pH)). For the same compound, in assay [3] (2% doxycycline, pH neutralized), the “mean percentage area of neovascularization, 2% doxycycline pH neutralized compared with 2% doxycycline not adjusted for pH” value was “significantly less”. Also, in assay [4], the inhibition of neovascularization entry is reported as “+”. Besides, the results for the “effect on corneal neovascularization, individual agent” value in assay [1] (doxycycline administered at 10 mg/ml) and in assay [1] (doxycycline administered at 20 mg/ml) were “not when administered at 10 mg/ml” and “did significantly inhibit”, respectively. Moreover, the “NV area compared to the control group (statistical significance)” value in assay [2] is “significant reduction”. Moreover, the “neovascularization on digitally enhanced slit lamp photograph” value in assay [2] is given as “neovascularization is less prominent than in control group”. Moreover, the “Percent Area Of Neovascularization Mean ± SD” value in assay [2] (listed as Doxycycline, monohydrate) was 35.5 ± 29.1%; in assay [2] (monohydrate), 35.5%±29.1%.
Turning to low molecular weight heparin, in assay [4], the inhibition of neovascularization entry was “+”. For the same compound, in assay [1], the “effect on corneal neovascularization, individual agents” value is “did not significantly decrease corneal neovascularization”. In addition, in assay [2], the “NV area compared to the control group (statistical significance)” value is listed as “no statistically significant differences”; the “Percent Area Of Neovascularization Mean ± SD” value was 66.7%±9.9% and 66.7 ± 9.9%.
